# Data reported in US20090162848A1, “Noxin, a novel stress-induced gene involved in cell cycle and apoptosis” (COLD SPRING HARBOR LABORATORY, priority 2007, published 2009).
# What was measured:
# Type in all cases: cell-based, mouse
# [1] = system: MEFs from wild type and noxin-/- mice; assay: BrdU/PI flow cytometry of MEFs released from serum arrest, with SNAP
# Procedure: Since noxin can induce cell cycle arrest and, in addition, respond to various types of stress stimuli, including NO, the growth characteristics of MEFs isolated from noxin^−/− animals or their wild type (noxin^+/+) littermates were compared. MEFs from wild type and noxin^−/− mice were arrested with low serum (0.1%) culture medium for 24 h and released by adding 10% serum. Cells were either left untreated or exposed to SNAP. At the time of release, BrdU was added to the culture medium and cells were further incubated for 4, 16, or 22 h (FIG. 17, indicated). Cells were collected, stained with PI and analyzed by flow cytometry for BrdU-positive cells (FIG. 17, X-axis: PI, Y-axis: BrdU) and for cell cycle distributions (FIG. 18, X-axis: PI and Y-axis: number of cells) (Fraction P3=G1, Fraction P4=S, Fraction P5=G2/M and Fraction P6=Sub-G1 populations). […]
# The growth of noxin^−/− MEFs under normal conditions (FIG. 17g-i) and after addition of SNAP (FIGS. 17j-l) were similar to that of wild type MEFs (FIG. 17a-c and FIG. 17d-f). However, the fraction of sub-G1 cells was higher in noxin-deficient (noxin^−/−) cells (Fraction P6) at each time point analyzed than in wild type (noxin^+/+) MEFs (13.8, 16.3, and 11.5 vs. 9.7, 5.1, and 3.5%, respectively, FIG. 18 fraction P6).
# noxin mRNA = assay: Northern blot time course of noxin mRNA induction
# Procedure: Total RNA was extracted from different adult mouse tissues and analyzed for noxin mRNA by Northern hybridization. Northern blot analysis was carried out as follows. Total RNA (10 μg) was separated by denaturing formaldehyde-agarose gel electrophoresis and transferred onto a nylon membrane (Hybond-N^+, Amersham). The membrane was pre-hybridized with hybridization buffer (0.05 M sodium phosphate buffer, 5×SSC, 4×Denhardt's solution, 1% SDS, 50% formamide, 0.1 mg/ml salmon sperm DNA, and 0.2 mg/ml yeast tRNA) for 6 h at 42° C. and hybridized with the same buffer containing 100,000 cpm/ml [α-^32P] dCTP-labeled noxin cDNA probe amplified by PCR from pFLAG-noxin. Following hybridization for 20 h at 42° C., the membrane was washed twice with 2×SSC for 5 min at room temperature, twice with 0.2×SSC for 5 min at 65° C. and twice with 1×SSC with 3% glycerol for 5 min at room temperature. The membrane was exposed for 3 days at −70° C. using X-OMAT X-ray film (Kodak).
# Noxin was identified as an NO-inducible gene and the time course of its induction by the NO donor SNAP was determined. Noxin mRNA levels as determined by Northern blot started to increase 2 h after the addition of SNAP and reached maximal levels 8 h after the addition (FIG. 6A). The pattern of noxin induction by SNAP was similar to that of a p53-dependent gene mdm2. Results for β-actin are shown as a control.
# [2] = system: noxin protein in NIH3T3 cells; assay: Subcellular localization of endogenous noxin by immunofluorescence; conditions: antibody against C-terminal region peptide
# [3] = system: noxin protein in NIH3T3 cells; assay: Western blot of endogenous noxin protein after stress stimuli; conditions: anti-noxin Western blot
# Procedure: (§1) Western blot analysis. Cells or tissues were homogenized in the lysis buffer (10 mM Tris-HCl pH 7.5, 1 mM EDTA, 400 mM NaCl, 0.5% NP40, 5 mM NaF, 0.5 mM sodium orthovanadate, 10% glycerol, 1 mM dithiothreitol, 1 mM PMSF, 1 μg/ml aprotinin, 1 μg/ml leupeptin and 1 μg/ml pepstatin) for 20 min on ice. Following centrifugation, the soluble fraction was collected and protein concentration was determined using the BCA assay kit (Pierce). 50 μg of total protein was separated on an 8% SDS-PAGE gel and transferred to Immobilon-P membrane (Millipore Corporation) by semi-dry blotting. The membranes were incubated with anti-noxin antibody (see above) (1:1,000) followed by anti-mouse IgG or anti-rabbit IgG antibody conjugated to horseradish peroxidase (HRP) (1:10,000, Amersham). The HRP signal was detected using a chemi-luminescence detection kit (SuperSignal Femto Dura Extended Duration Substrate, Pierce) and Hyperfilm X-ray film (Amersham Biosciences).
# Furthermore, in the SNAP-, cytokines-, γ-irradiation, and adriamycin-treated cells an additional band of 129 kD was evident.
# [4] = system: noxin mRNA in NIH3T3 cells; assay: Q-PCR of noxin mRNA in NIH3T3 cells exposed to stress stimuli; conditions: for induction of noxin mRNA: NIH3T3 cells exposed for 16 hours, Q-PCR
# Procedure: The cDNA was diluted, mixed with 2×SYBR Green PCR Master Mix (Applied Biosystems) and 0.3 μM forward and reverse primers, and amplified using the ABI PRISM 7700 Sequence Detection System (Applied Biosystems). Primers (Sigma Genosys) for noxin and β-actin were designed using Primer Express software (Applied Biosystems) assuming the Tm value of 58-60° C. and the amplicon size of 70-150 bp:
# The PCR conditions for the thermal cycler were as follows: denaturation (1 cycle at 95° C. for 10 min), amplification (40 cycles at 95° C. for 15 sec and 60° C. for 1 min). During the amplification, the fluorescence of each sample in the plate was detected in real time and an amplification curve was drawn by Sequence Detection System Software (Applied Biosystems) to get the threshold cycle Cτ, the cycle number at which the curve starts to rise over the background noise. The data from noxin amplifications were normalized using the Cτ value from the β-actin set for each sample and the relative difference in the amount of noxin RNA in untreated and in stress-exposed cells was calculated.
# Noxin is induced not only by NO but also by other known stress stimuli. NIH3T3 cells were exposed for 16 hours to γ-irradiation (γ-IR), UV-irradiation (UV-IR), the chemotherapeutic agent adriamycin (ADR), hydrogen peroxide (H2O2), and a mixture of cytokines (TNF-α, IFN-γ, and IL-1β) which is known to be a potent inducer of reactive oxygen and nitrogen species.
# [5] = system: noxin protein in NIH3T3 cells; assay: Western blot of noxin protein by cell cycle phase and cell cycle inhibitors
# Procedure: as §1, with “The membranes were incubated with anti-noxin antibody (see above) (1:1,000) followed by anti-mouse IgG or anti-rabbit IgG antibody conjugated to horseradish peroxidase (HRP) (1:10,000, Amersham).” left out
# The relationship between cell cycle and noxin expression was examined by determining the noxin mRNA levels in cells in various phases of the cell cycle using the methodology as follows: NIH3T3 cells, synchronized by serum starvation (DMEM with 0.5% serum for 24 h) were released from arrest by the addition of 10% serum (corresponds to the 0 h time point). […] Noxin mRNA expression was analyzed using Q-PCR 0, 4, 14, or 20 h after the addition of serum. The cell cycle phase of the cells was determined by flow cytometry in the following manner: […]
# NIH3T3 cells [6] = assay: DNA content (PI flow cytometry) of shRNA-transfected, nocodazole-treated NIH3T3 cells; conditions: for fraction of cells in the sub-G1 population: nocodazole for 20 h
# Procedure: For this experiment, NIH3T3 cells were transfected with 1 μg (HPC) or 2 μg (2×HPC) of the HPC shRNA construct, treated with nocodazole for 20 h, collected, stained with PI, and analyzed for DNA content using flow cytometry. The downregulation of noxin using this shRNA construct decreased the fraction of cells in G2/M and increased the fraction of cells in the sub-G1 population: 5.7±0.4% in control cells vs. 7.8±1.3% in cells transfected with 1 μg of HPC, and 8.0±1.7% in cells transfected with 2 μg of HPC (FIG. 20B).
# NIH3T3 cells [7] = assay: Nuclear morphology (Hoechst) of shRNA/YFP-actin co-transfected cells; conditions: co-transfected with YFP-actin, Hoechst stain
# Excerpt: Panels 21A-D are images of cells that were co-transfected with the HPC or HPF shRNA constructs together with YFP-actin construct and stained with Hoechst. shRNA-transfected cells were identified by the YFP expression. […] The nuclei of cells transfected with HPF and YFP-actin or with YFP-actin alone and the nuclei of non-transfected cells had normal shape (light blue arrowheads). Scale bar: 10 μm.
# noxin = assay: Suppression of FLAG-noxin protein by shRNA constructs (co-transfection, Western blot); conditions: NIH3T3 cells co-transfected with shRNA, FLAG-noxin and luciferase
# Excerpt: The role of noxin in normal cells was probed by down regulating its expression using the RNAi approach. Plasmids expressing six different noxin shRNA (FIG. 22, depicted as HPA-HPF) under control of the human U6 promoter were generated as described (Paddison et al., Proc Natl Acad Sci U.S.A. 99:1443-8 (2002)). The 6 hairpin structures correspond to the following noxin nucleotide positions: The target U6 promoter cassette DNA was amplified using a 5′-primer corresponding to the SP6 site at the 5′-end of the U6 promoter cassette and a long 3′ primer complementary to the 3′-end of the promoter and containing sequences for the noxin shRNA and a pol III termination site. The PCR fragments were subcloned into pENTR-TOPO-D vector (Invitrogen) and then transferred into pMSCV-puro vector by a clonase (Invitrogen) reaction. These six, short hairpin RNA (shRNA) constructs were generated and corresponded to different regions of noxin mRNA and their binding efficiency was compared by co-expressing them with recombinant noxin cDNA (FIG. 20A). To select shRNA constructs, six different shRNA constructs (HPA to HPF) were produced and examined for their ability to suppress the expression of noxin protein. […] After normalization, protein samples were analyzed for the expression of FLAG-noxin protein by Western blot.
# NIH3T3 cells [8] = assay: BrdU incorporation (DNA synthesis) in transfected versus untransfected NIH3T3 cells; conditions: BrdU labeling for 24 h
# Procedure: In addition, constructs coding for cyan fluorescent protein with a nuclear localization signal (CFP-nuc), yellow fluorescent protein fused to actin (YFP-actin), or vector construct alone were used as controls. Cells were then labeled with BrdU for 24 h and analyzed cells in situ by immunocytochemistry for BrdU and noxin (or other listed proteins) (FIG. 11A-C). In the figures, signals from anti-FLAG antibodies are seen in red; anti-BrdU antibodies are green; Hoechst 33342 (blue) was used for nuclear counter-staining. […] Recombinant protein was detected on a Western blot using the anti-FLAG antibody.
compound,measurement,setting,value
"CC(=O)NC(C(=O)O)C(C)(C)SN=O (racemic) [SNAP, S-nitroso-N-acetyl-D,L-penicillamine]",decrease of the fraction of dividing cells,"[1]; MEFs released from low serum arrest, BrdU",95.5%
same,effect on sub-G1 fraction (Fraction P6),[1]; noxin+/+ or noxin-/- MEFs,did not noticeably affect
same,time after addition at which noxin mRNA levels started to increase,noxin mRNA,2 h
same,time after addition at which noxin mRNA reached maximal levels,noxin mRNA,8 h
same,localization of endogenous noxin protein after exposure,[2],predominantly nuclear localization
same,additional noxin band of 129 kD,[3],evident
same,levels of the 125 kD noxin polypeptide,[3],specifically increased
"OO [H2O2, hydrogen peroxide]",induction of noxin mRNA,[4],strong induction
same,noxin mRNA level versus unstimulated cells,"[4]; NIH3T3 cells, stress exposure",13 fold
same,levels of the 125 kD noxin polypeptide,[3],specifically increased
COc1cccc2c1C(=O)c1c(O)c3c(c(O)c1C2=O)C[C@@](O)(C(=O)CO)C[C@@H]3O[C@H]1C[C@H](N)[C@H](O)[C@H](C)O1 [adriamycin],induction of noxin mRNA,[4],strong induction
same,additional noxin band of 129 kD,[3],evident
same,levels of the 125 kD noxin polypeptide,[3],specifically increased
C[C@@]1(CO)[C@H](O)CC[C@@]2(C)[C@H]1CC[C@H]1C[C@@H]3C[C@@]12CC[C@]3(O)CO [aphidicolin],Noxin levels in response to cell cycle inhibitors,[5],induced
COC(=O)Nc1nc2ccc(C(=O)c3cccs3)cc2[nH]1 [nocodazole],Noxin levels in response to cell cycle inhibitors,[5],induced
same,cell cycle effect of nocodazole treatment,"NIH3T3 cells [6]; NIH3T3 cells, 20 h",accumulation of cells in the G2/M phase
"HPC: noxin shRNA construct, nt 1163-1191 (SEQ ID NO: 16) (DNA GTTGTCATGAAAGTAGATTGTCTGACTCT)",nuclear / chromatin morphology of transfected cells,NIH3T3 cells [7],condensed chromatin structures
same,inhibition of noxin (FLAG-noxin) expression,noxin,strongest inhibition
same,fraction of cells in G2/M phase,NIH3T3 cells [6]; nocodazole-treated NIH3T3 cells,decreased
same,fraction of cells in the sub-G1 population,NIH3T3 cells [6]; transfected with 1 μg construct,7.8±1.3%
same,fraction of cells in the sub-G1 population,NIH3T3 cells [6]; transfected with 2 μg construct,8.0±1.7%
"HPF: noxin shRNA construct, nt 509-537 (SEQ ID NO: 19) (DNA AAACCCTGGACAGTGGTAGAACTCAGAGC)",nuclear / chromatin morphology of transfected cells,NIH3T3 cells [7],normal shape
same,inhibition of noxin (FLAG-noxin) expression,noxin,no effect
p21/WAF: cdk inhibitor p21/WAF expressed from transfected plasmid,"fraction of BrdU-positive cells in transfected cells, % of the value for the untransfected cells",NIH3T3 cells [8],39%
